Here are results for 17 compounds from patent US11224601B1, “Compounds that inhibits MCL-1 protein” (priority 2017, dated 2022).

Assay [1] has as its target recombinant human Mcl-1 (Mcl-1/Bim interaction) (Homo sapiens (Human), UniProt Q07820). The experiment in a line: biochemical. The format is binding. To be noted: cell free Mcl-1:Bim TR-FRET; read-out: Mcl-1 HTRF IC50.
Procedure: Cell free Mcl-1:Bim Affinity Assay (Mcl-1 HTRF)
The inhibition of the Mcl-1/Bim interaction was measured using a time-resolved fluorescence resonance energy transfer (TR-FRET) assay. The recombinant human Mcl-1 (C-terminally 6×His tagged Mcl-1 containing residues 171-327) was generated at Amgen Inc (Thousand Oaks, Calif.). A biotinylated peptide derived from human Bim (residues 51-76) was purchased from CPC Scientific (San Jose, Calif.). The TR-FRET assay was conducted in a 384-well white OptiPlate™ (PerkinElmer, Waltham, Mass.) in a total volume of 40 μL. The reaction mixture contained 0.1 nM Mcl-1(171-327), 0.05 nM biotin-Bim(51-76), 0.05 nM LANCE® Eu-W1024 Anti-6×His (PerkinElmer), 0.072 nM Streptavidin-Xlent (Cisbio, Bedford, Mass.), and serially diluted test compounds in the binding buffer of 20 mM Hepes, pH 7.5, 150 mM NaCl, 0.016 mM Brij® 35, and 1 mM dithiothreitol. Test compounds were pre-incubated with Mcl-1(171-327) and biotin-Bim (51-76) for 60 min before addition of the detection mixture (LANCE® Eu-W1024 Anti-6×His and Streptavidin-Xlent). The reaction plates were further incubated overnight and then were read on an Envision® multimode reader (PerkinElmer). Fluorescence signals were measured at 620 nm (40-nm bandwidth) and 665 nm (7.5-nm bandwidth) with a 60 μs delay after excitation at 320 nm (75-nm bandwidth). The signal ratio at 665/620 nm corresponded to the Mcl-1/Bim interaction and was used in all data analyses. The IC50 values of test compounds were determined from duplicate data by analyzing competition curves using a four-parameter sigmoidal model in GraphPad Prism (GraphPad Software, San Diego, Calif.) or in Genedata Screener® (Genedata, Basel, Switzerland).
Assay [2] relates to OPM-2 human multiple myeloma cell line. In words: Cell Viability Assay (OPM-2 10 FBS), CellTiter-Glo. In kind it is cell-based. The protocol:
Cell Viability Assay (OPM-2 10 FBS)
The human multiple myeloma cell line, OPM-2, was cultured in complete growth medium containing RPMI 1640 and 10% fetal bovine serum (FBS). Cells were seeded into 384-well plates at 3000 cells/well density in complete growth medium containing 10% FBS, and incubated for 16 h with serially diluted test compounds in a 37° C. incubator with 5% CO2. Cell viability was tested using CellTiter-Glo® assay (Promega, Madison, Wis.) according to the manufacturer recommendations. Luminescence was determined using an EnVision® Multilabel plate reader 25 min after the addition of detection reagent. IC50 values were then calculated with Xlfit using a logistical 4-parameter fit model in GraphPad Prism (GraphPad Software, San Diego, Calif.) or in Genedata Screener® (Genedata, Basel, Switzerland).

[3] abbreviates: Homo sapiens, OPM-2, 16 h, read-out: OPM-2 10% FBS IC50 IP (μM), OPM-2 cells, 10% FBS, 16 h, CellTiter-Glo.

Read-outs that look alike come from different tables or passages of the source.

In general, IC50 refers to the concentration that gives 50% inhibition.

Chain of recombinant human Mcl-1 (Mcl-1/Bim interaction) (Q07820 171-327): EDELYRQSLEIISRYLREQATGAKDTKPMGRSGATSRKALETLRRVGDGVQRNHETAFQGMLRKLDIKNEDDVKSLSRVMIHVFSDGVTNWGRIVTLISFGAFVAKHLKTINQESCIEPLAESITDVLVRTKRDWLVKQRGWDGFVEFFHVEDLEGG

Consider `CO[C@@]1(CN2CCN3CCCC[C@@H]3C2)/C=C/C[C@H](C)[C@@H](Cc2ccccc2)S(=O)(=O)NC(=O)c2ccc3c(c2)N(C[C@@H]2CC[C@H]21)C[C@@]1(CCCc2cc(Cl)ccc21)CO3` (single isomer, unassigned) [Example 104], for which the results for the IC50 in assay [1] and in assay [2] (setting [3]) were 1.12 nM and 0.782 µM, respectively. In the same order, the values of `CO[C@@]1(CN2CCN3CCN(C)CC3C2)/C=C/C[C@H](C)[C@@H](C)S(=O)(=O)NC(=O)c2ccc3c(c2)N(C[C@@H]2CC[C@H]21)C[C@@]1(CCCc2cc(Cl)ccc21)CO3` (single isomer, unassigned) [Example 216] are 0.49 nM and 0.183 µM. In the same order, the values of `CO[C@@]1(CN2CCN3CCC[C@@H]3C2)/C=C/C[C@H](C)[C@@H](C)S(=O)(=O)NC(=O)c2ccc3c(c2)N(C[C@@H]2CC[C@H]21)C[C@@]1(CCCc2cc(Cl)ccc21)CO3` (stereo in doubt) [Example 80] are 1.55 nM and 0.205 µM.

As for `CO[C@]1(CN2CCN3CCCCC[C@@H]3C2)/C=C/C[C@H](C)[C@@H](C)S(=O)(=O)NC(=O)c2ccc3c(c2)N(C[C@@H]2CC[C@H]21)C[C@@]1(CCCc2cc(Cl)ccc21)CO3` (stereo in doubt) [Example 87], the IC50 in assay [1] was 0.127 nM; in assay [2] (setting [3]), 0.141 µM. In the same order, the values of `CO[C@]1(CN2CCN3CCN(C(C)=O)C[C@@H]3C2)/C=C/C[C@H](C)[C@@H](C)S(=O)(=O)NC(=O)c2ccc3c(c2)N(C[C@@H]2CC[C@H]21)C[C@@]1(CCCc2cc(Cl)ccc21)CO3` (stereo in doubt) [Example 218] are 0.142 nM and 0.092 µM. For the compound `CO[C@@]1(CN2CCN([C@H]3CCOC3)CC2)/C=C/C[C@H](C)[C@@H](C)S(=O)(=O)NC(=O)c2ccc3c(c2)N(C[C@@H]2CC[C@H]21)C[C@@]1(CCCc2cc(Cl)ccc21)CO3` (stereo in doubt) [Example 275], the IC50 in assay [1] was 0.176 nM; in assay [2] (setting [3]), 0.082 µM. For the compound `CO[C@]1(CN2CCN3CC[C@H](F)C[C@@H]3C2)/C=C/C[C@H](C)[C@@H](C)S(=O)(=O)NC(=O)c2ccc3c(c2)N(C[C@@H]2CC[C@H]21)C[C@@]1(CCCc2cc(Cl)ccc21)CO3` (stereo in doubt) [Example 293], the IC50 in assay [1] is 0.242 nM; in assay [2] (read-out: OPM-2 10% FBS IC50 IP, OPM-2 cells, 10% FBS, 16 h, CellTiter-Glo), 0.207 µM.

As to `CCO[C@]1(CN2CCN(C(C)C)[C@H](C)C2)/C=C/C[C@H](C)[C@@H](C)S(=O)(=O)NC(=O)c2ccc3c(c2)N(C[C@@H]2CC[C@H]21)C[C@@]1(CCCc2cc(Cl)ccc21)CO3` [Example 9, (1S,3′R,6′R,7′R,8′E,11′S,12′R)-6-chloro-7′-ethoxy-11′,12′-dimethyl-7′-(((3R)-3-methyl-4-(1-methylethyl)-1-piperazinyl)methyl)-3,4-dihydro-2H,15′H-spiro[naphthalene-1,22′-[20]oxa[13]thia[1,14]diazatetracyclo[14.7.2.0˜3,6˜.0˜19,24˜]pentacosa[8,16,18,24]tetraen]-15′-one 13′,13′-dioxide], the IC50 in assay [1] was found to be 0.078 nM; in assay [2] (setting [3]), 0.05 µM. In the same order, the values of `CCO[C@]1(CN2CCN(C(C)C)[C@H](C)C2)/C=C/C[C@H](C)[C@@H](CCOC)S(=O)(=O)NC(=O)c2ccc3c(c2)N(C[C@@H]2CC[C@H]21)C[C@@]1(CCCc2cc(Cl)ccc21)CO3` [Example 17, (1S,3′R,6′R,7′R,8′E,11′S,12′R)-6-chloro-7′-ethoxy-12′-(2-methoxyethyl)-11′-methyl-7′-(((3R)-3-methyl-4-(1-methylethyl)-1-piperazinyl)methyl)-3,4-dihydro-2H,15′H-spiro[naphthalene-1,22′-[20]oxa[13]thia[1,14]diazatetracyclo[14.7.2.0˜3,6˜.0˜19,24˜]pentacosa[8,16,18,24]tetraen]-15′-one 13′,13′-dioxide] are 0.073 nM and 0.034 µM.

As for `COCC[C@@H]1[C@@H](C)C/C=C/[C@](CN2CCN3CCOC[C@@H]3C2)(OC)[C@@H]2CC[C@H]2CN2C[C@@]3(CCCc4cc(Cl)ccc43)COc3ccc(nc32)C(=O)NS1(=O)=O` [Example 20, (1S,3′R,6′R,7′S,8′E,11′S,12′R)-6-chloro-7′-((9aS)-hexahydropyrazino[2,1-c][1,4]oxazin-8(1H)-ylmethyl)-7′-methoxy-12′-(2-methoxyethyl)-11′-methyl-3,4-dihydro-2H,15′H-spiro[naphthalene-1,22′-[20]oxa[13]thia[1,14,25]triazatetracyclo[14.7.2.0˜3,6˜.0˜19,24˜]pentacosa[8,16,18,24]tetraen]-15′-one 13′,13′-dioxide], the IC50 in assay [1] was 0.082 nM; in assay [2] (setting [3]), 0.022 µM. Take `CC(C)N(CCO)C[C@]1(O)/C=C/C[C@H](C)[C@@H](C)S(=O)(=O)NC(=O)c2ccc3c(c2)N(C[C@@H]2CC[C@H]21)C[C@@]1(CCCc2cc(Cl)ccc21)CO3` [Example 126, (1S,3′R,6′R,7′S,8′E,11′S,12′R)-6-chloro-7′-hydroxy-7′-(((2-hydroxyethyl)(1-methylethyl)amino)methyl)-11′,12′-dimethyl-3,4-dihydro-2H,15′H-spiro[naphthalene-1,22′-[20]oxa[13]thia[1,14]diazatetracyclo[14.7.2.0˜3,6˜.0˜19,24˜]pentacosa[8,16,18,24]tetraen]-15′-one 13′,13′-dioxide]: in assay [1], the IC50 stood at 0.627 nM. Still for that read-out and setting: the value for `C[C@@H]1[C@@H](C)C/C=C/[C@]2(CN(Cc3ccccc3)CCO2)[C@@H]2CC[C@H]2CN2C[C@@]3(CCCc4cc(Cl)ccc43)COc3ccc(cc32)C(=O)NS1(=O)=O` [Example 138, (1S,3′R,6′R,7′R,8′E,11′S,12′R)-4″-benzyl-6-chloro-11′,12′-dimethyl-3,4-dihydro-2H,15′H-dispiro[naphthalene-1,22′-[20]oxa[13]thia[1,14]diazatetracyclo[14.7.2.0˜3,6˜.0˜19,24˜]pentacosa[8,16,18,24]tetraene-7′,2″-[1,4]oxazinan]-15′-one 13′,13′-dioxide] was 26.7 nM. Consider `COCCO[C@@]1(CN2CCN3CCCC[C@@H]3C2)/C=C/C[C@H](C)[C@@H](C)S(=O)(=O)NC(=O)c2ccc3c(c2)N(C[C@@H]2CC[C@H]21)C[C@@]1(CCCc2cc(Cl)ccc21)CO3` [Example 151, (1S,3′R,6′R,7′S,8′E,11′S,12′R)-6-chloro-7′-(2-methoxyethoxy)-11′,12′-dimethyl-7′-((9aR)-octahydro-2H-pyrido[1,2-a]pyrazin-2-ylmethyl)-3,4-dihydro-2H,15′H-spiro[naphthalene-1,22′-[20]oxa[13]thia[1,14]diazatetracyclo[14.7.2.0˜3,6˜.0˜19,24˜]pentacosa[8,16,18,24]tetraen]-15′-one 13′,13′-dioxide], for which the IC50 was found to be 0.843 nM in assay [1] and 0.462 µM in assay [2] (setting [3]). For the compound `CO[C@@]1(C(=O)N(C)C)/C=C/C[C@H](C)[C@@H](C)S(=O)(=O)NC(=O)c2ccc3c(c2)N(C[C@@H]2CC[C@H]21)C[C@@]1(CCCc2cc(Cl)ccc21)CO3` [Example 176, (1S,3′R,6′R,7′S,8′E,11′S,12′R)-6-chloro-7′-methoxy-N,N,11′,12′-tetramethyl-15′-oxo-3,4-dihydro-2H-spiro[naphthalene-1,22′-[20]oxa[13]thia[1,14]diazatetracyclo[14.7.2.0˜3,6˜.0˜19,24˜]pentacosa[8,16,18,24]tetraene]-7′-carboxamide 13′,13′-dioxide], the values for the IC50 in assay [1] and in assay [2] (setting [3]) were 0.118 nM and 0.149 µM, respectively. In the same order, the values of `CO[C@]1(C(=O)N(C)C)/C=C/C[C@H](C)[C@@H](C)S(=O)(=O)NC(=O)c2ccc3c(c2)N(C[C@@H]2CC[C@H]21)C[C@@]1(CCCc2cc(Cl)ccc21)CO3` [Example 177, (1S,3′R,6′R,7′R,8′E,11′S,12′R)-6-chloro-7′-methoxy-N,N,11′,12′-tetramethyl-15′-oxo-3,4-dihydro-2H-spiro[naphthalene-1,22′-[20]oxa[13]thia[1,14]diazatetracyclo[14.7.2.0˜3,6˜.0˜19,24˜]pentacosa[8,16,18,24]tetraene]-7′-carboxamide 13′,13′-dioxide] are 0.153 nM and 0.615 µM. In the same order, the values of `C[C@@H]1[C@@H](C)C/C=C/[C@@](O)(CN2CCN3CCOC[C@@H]3C2)[C@@H]2CC[C@H]2CN2C[C@@]3(CCCc4cc(Cl)ccc43)COc3ccc(cc32)C(=O)NS1(=O)=O` [Example 193, (1S,3′R,6′R,7′S,8′E,11′S,12′R)-6-chloro-7′-((9aS)-hexahydropyrazino[2,1-c][1,4]oxazin-8(1H)-ylmethyl)-7′-hydroxy-11′,12′-dimethyl-3,4-dihydro-2H,15′H-spiro[naphthalene-1,22′-[20]oxa[13]thia[1,14]diazatetracyclo[14.7.2.0˜3,6˜.0˜19,24˜]pentacosa[8,16,18,24]tetraen]-15′-one 13′,13′-dioxide] are 0.096 nM and 0.023 µM.

In the case of `CO[C@@]1(CN2CCN(CC(=O)O)CC2)/C=C/C[C@H](C)[C@@H](C)S(=O)(=O)NC(=O)c2ccc3c(c2)N(C[C@@H]2CC[C@H]21)C[C@@]1(CCCc2cc(Cl)ccc21)CO3` [Example 270, (4-(((1S,3′R,6′R,7′S,8′E,11′S,12′R)-6-chloro-7′-methoxy-11′,12′-dimethyl-13′,13′-dioxido-15′-oxo-3,4-dihydro-2H-spiro[naphthalene-1,22′-[20]oxa[13]thia[1,14]diazatetracyclo[14.7.2.0˜3,6˜.0˜19,24˜]pentacosa[8,16,18,24]tetraen]-7′-yl)methyl)-1-piperazinyl)acetic acid], the IC50 in assay [1] turned out to be 0.035 nM.
